Molecules are shown by their SMILES.

A short description of the data set: Drug stability in biological fluid (LC-MS/MS method validation). The class given is in vitro ADME. To be noted: human plasma, LQC and HQC; freshly prepared, post-processing (auto-injector, 73:43 hours), short-term (72:21 hours), freeze-thaw (4 cycles) at -20 °C and -70 °C, long-term 90 days at -20 °C and -70 °C; demonstrating stability. How it is done: criteria for RE and CV must not exceed 15% for QC and 20% for LLOQ. All stability assays were performed to cover the conditions anticipated for handling real samples: freshly prepared, post-processing, short-term, freeze–thaw, and long-term were evaluated at concentrations of LQC and HQC. RE and CV were used to check possible variations.
2.4. Determination of Etodolac Pharmacokinetic
Following Food and Drug Administration (FDA) guidelines, blood samples were drawn up to a period of three to ﬁve times the terminal elimination half-life (t1/2), and the mean AUC0–t/AUC0–∞ ratio was required to be higher than 80%. The area under the concentration–time curve (AUC0–t) was calculated from time 0 to time t. The total area under the curve (AUC0–∞) was obtained up to […], and extrapolations were performed using the last measurable concentration and the terminal elimination rate constant (Ke). The terminal elimination rate constant, Ke, was estimated from the slope of the terminal […] of the plasma of the etodolac concentration–time curve (by means of the linear regression method) adjusted in the last three values. The terminal elimination half-life, t1/2, was then obtained as 0.693/Ke. […]

Consider `CCc1cccc2c3c([nH]c12)C(CC)(CC(=O)O)OCC3` (stereo not shown) [Etodolac], for which the “drug stability in biological fluid: precision and accuracy values” is reported as “below 15%”.

(Values after paper PMC11768370, “Etodolac Single Dose Metabolic Profile Elucidation: Pharmacokinetics and Adverse Events in Healthy Volunteers” (Pharmaceuticals, 2025).)
